Each structure is given as a SMILES string.

Data set [1] deals with T1, Alcohol dehydrogenase class-3 (Homo sapiens, UniProt P11766). As to the kind of experiment: Inhibition of human GSNOR assessed as reduction in NADH consumption after 3 mins by spectrophotometric analysis.
Target sequence in this assay (P11766 whole entry): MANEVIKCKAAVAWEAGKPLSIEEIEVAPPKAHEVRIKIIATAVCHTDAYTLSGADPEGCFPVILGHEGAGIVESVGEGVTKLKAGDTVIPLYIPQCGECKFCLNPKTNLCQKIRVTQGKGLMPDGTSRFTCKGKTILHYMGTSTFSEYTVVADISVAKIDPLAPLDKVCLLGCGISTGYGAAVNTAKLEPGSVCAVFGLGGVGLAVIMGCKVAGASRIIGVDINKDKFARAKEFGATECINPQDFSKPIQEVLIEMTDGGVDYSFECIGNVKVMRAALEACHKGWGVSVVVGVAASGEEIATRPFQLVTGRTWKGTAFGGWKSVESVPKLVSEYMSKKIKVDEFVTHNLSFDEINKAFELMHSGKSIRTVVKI
A further data set concerns the target T2, CYP1A2 (Homo sapiens, UniProt P05177).
T2 sequence (P05177 whole entry): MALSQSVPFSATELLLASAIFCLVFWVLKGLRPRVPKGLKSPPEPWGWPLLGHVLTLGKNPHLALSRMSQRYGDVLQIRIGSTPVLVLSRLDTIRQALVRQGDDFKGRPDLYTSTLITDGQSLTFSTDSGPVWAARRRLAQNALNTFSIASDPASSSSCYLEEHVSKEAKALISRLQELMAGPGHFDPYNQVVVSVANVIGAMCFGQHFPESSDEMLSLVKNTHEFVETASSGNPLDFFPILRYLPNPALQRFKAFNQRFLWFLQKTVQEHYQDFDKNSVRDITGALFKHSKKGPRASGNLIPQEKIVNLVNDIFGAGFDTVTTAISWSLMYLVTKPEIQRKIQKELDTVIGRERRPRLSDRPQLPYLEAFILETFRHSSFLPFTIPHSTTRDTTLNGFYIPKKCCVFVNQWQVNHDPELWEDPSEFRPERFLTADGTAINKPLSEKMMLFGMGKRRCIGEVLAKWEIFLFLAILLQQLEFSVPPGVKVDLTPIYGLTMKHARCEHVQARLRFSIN
As to the kind of experiment: Inhibition of CYP1A2 in human liver microsomes at 10 uM after 20 mins in presence of NADPH by LC/MS/MS analysis relative to control. Type of data set: ADME. The settings on record: liver microsomes. For orientation: Microsomes from liver hold many membrane-bound enzymes, among them those of drug oxidation.

For the next data set, the target named is CYP2D6 (Homo sapiens, UniProt P10635). Description: Inhibition of CYP2D6 in human liver microsomes at 10 uM after 20 mins in presence of NADPH by LC/MS/MS analysis relative to control. It is filed as ADME. The settings on record: liver microsomes.
CYP2D6, sequence (P10635 whole entry): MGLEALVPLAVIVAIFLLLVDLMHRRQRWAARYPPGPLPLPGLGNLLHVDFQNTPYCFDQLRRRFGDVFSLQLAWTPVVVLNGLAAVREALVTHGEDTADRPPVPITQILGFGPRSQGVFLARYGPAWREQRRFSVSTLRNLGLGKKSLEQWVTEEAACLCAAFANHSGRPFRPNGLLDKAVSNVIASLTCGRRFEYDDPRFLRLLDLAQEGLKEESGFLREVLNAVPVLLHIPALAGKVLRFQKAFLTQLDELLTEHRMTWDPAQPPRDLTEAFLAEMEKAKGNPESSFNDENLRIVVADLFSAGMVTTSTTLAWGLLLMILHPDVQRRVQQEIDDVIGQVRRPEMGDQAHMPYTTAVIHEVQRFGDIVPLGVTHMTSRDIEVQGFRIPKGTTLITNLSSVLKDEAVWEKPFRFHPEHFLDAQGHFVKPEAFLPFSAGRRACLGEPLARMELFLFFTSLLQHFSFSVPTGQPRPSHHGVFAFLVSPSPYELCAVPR
The next data set addresses CYP3A4 (Homo sapiens, UniProt P08684). Description: Inhibition of CYP3A4 in human liver microsomes at 10 uM after 20 mins in presence of NADPH by LC/MS/MS analysis relative to control. Type of data set: ADME. Conditions: liver microsomes.
For the next data set, the target named is CYP2C9 (Homo sapiens, UniProt P11712). Description: Inhibition of CYP2C9 in human liver microsomes at 10 uM after 20 mins in presence of NADPH by LC/MS/MS analysis relative to control. Type of data set: ADME.
CYP2C9, sequence (P11712 whole entry): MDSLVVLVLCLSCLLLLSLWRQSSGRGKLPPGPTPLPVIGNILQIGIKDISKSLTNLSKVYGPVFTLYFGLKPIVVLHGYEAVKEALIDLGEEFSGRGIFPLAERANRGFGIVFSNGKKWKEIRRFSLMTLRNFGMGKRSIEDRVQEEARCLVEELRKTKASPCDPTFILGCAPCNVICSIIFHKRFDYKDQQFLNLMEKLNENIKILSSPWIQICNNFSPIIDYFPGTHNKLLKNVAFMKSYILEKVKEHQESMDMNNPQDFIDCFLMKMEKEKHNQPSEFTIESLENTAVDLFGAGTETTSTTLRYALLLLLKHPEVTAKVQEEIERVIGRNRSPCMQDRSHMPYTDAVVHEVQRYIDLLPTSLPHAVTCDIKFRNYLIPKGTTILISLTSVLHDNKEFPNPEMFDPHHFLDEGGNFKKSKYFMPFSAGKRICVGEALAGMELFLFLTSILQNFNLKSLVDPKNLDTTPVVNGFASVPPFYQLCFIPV
A further data set has as its target CYP2C19 (Homo sapiens, UniProt P33261). Description: Inhibition of CYP2C19 in human liver microsomes at 10 uM after 40 mins in presence of NADPH by LC/MS/MS analysis relative to control. Type of data set: ADME.
Data set [2] can be described thus: Metabolic stability of human liver microsomes assessed as parent compound remaining at 0.1 uM after 60 mins in presence of NADPH by LC/MS/MS analysis. Type of data set: ADME, microsome. Conditions: read-out: Stability.
A short description of data set [3]: Metabolic stability of rat liver microsomes assessed as parent compound remaining at 0.1 uM after 60 mins in presence of NADPH by LC/MS/MS analysis. Type of data set: ADME, microsome. The settings on record: read-out: Stability.
Data set [4] is described as follows: Metabolic stability of mouse liver microsomes assessed as parent compound remaining at 0.1 uM after 60 mins in presence of NADPH by LC/MS/MS analysis. It is filed as ADME, microsome. The settings on record: read-out: Stability.
The target in data set [5] is T1, Alcohol dehydrogenase class-3. Description: Inhibition of human GSNOR assessed as reduction in NADH consumption at 10 uM after 3 mins by spectrophotometric analysis relative to control.
Target sequence in this assay (P11766 2-374 limits assumed): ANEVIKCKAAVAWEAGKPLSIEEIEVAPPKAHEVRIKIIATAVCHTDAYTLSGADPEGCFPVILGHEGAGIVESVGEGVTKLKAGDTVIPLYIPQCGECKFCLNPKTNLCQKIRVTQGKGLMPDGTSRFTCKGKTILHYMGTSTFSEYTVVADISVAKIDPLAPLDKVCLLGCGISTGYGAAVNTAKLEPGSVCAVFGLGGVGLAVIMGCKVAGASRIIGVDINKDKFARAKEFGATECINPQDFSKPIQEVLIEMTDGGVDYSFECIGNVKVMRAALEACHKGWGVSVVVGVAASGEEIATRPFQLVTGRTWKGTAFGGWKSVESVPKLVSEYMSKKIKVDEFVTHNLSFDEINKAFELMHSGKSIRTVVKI

CYP3A4, sequence (P08684 whole entry): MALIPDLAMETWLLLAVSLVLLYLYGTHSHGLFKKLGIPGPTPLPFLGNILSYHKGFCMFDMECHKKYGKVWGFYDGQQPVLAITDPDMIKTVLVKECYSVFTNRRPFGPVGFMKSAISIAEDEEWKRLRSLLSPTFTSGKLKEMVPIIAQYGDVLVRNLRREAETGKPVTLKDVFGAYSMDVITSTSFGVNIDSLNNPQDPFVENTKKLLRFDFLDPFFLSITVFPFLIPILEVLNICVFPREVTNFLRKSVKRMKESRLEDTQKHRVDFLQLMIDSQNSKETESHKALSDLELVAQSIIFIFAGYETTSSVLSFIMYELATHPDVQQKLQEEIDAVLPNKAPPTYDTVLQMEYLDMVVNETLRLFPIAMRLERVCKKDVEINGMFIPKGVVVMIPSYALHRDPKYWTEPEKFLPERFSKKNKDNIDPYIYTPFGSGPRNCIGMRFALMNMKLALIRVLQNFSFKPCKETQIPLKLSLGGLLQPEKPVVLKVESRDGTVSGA
CYP2C19, sequence (P33261 whole entry): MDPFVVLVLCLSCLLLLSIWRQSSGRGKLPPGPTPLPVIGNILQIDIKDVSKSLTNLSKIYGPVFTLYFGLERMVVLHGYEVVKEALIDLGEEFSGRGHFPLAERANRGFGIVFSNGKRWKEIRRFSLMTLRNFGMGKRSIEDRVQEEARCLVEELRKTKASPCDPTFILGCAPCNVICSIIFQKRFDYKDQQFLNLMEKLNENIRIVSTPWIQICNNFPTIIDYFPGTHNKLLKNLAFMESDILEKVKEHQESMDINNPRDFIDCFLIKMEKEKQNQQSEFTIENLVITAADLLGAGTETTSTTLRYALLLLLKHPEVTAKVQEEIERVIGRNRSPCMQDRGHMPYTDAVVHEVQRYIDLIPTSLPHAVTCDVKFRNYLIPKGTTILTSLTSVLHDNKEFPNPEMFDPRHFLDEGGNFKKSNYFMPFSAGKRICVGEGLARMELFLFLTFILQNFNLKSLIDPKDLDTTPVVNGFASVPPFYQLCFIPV

By IC50 is commonly meant the concentration that gives 50% inhibition. As to `c1cn(-c2ccc(-c3ccc(-c4nnn[nH]4)cc3)nc2)cn1`, in data set [1], the half-inhibitory concentration (IC50) is 32 nM.

For the compound `Clc1cc(-c2nnn[nH]2)ccc1-c1ccc(-n2ccnc2)cn1`, the IC50 in data set [1] stood at 308 nM.

Regarding `Fc1cc(-c2nnn[nH]2)ccc1-c1ccc(-n2ccnc2)cc1`, the 50% inhibitory concentration (IC50) in [1] came out at 20 nM.

Take `O=c1nc(-c2ccc(-c3ccc(-n4ccnc4)cc3)cc2)[nH]o1`: the IC50 in data set [1] came to 152 nM.

For the compound `O=C(O)c1ccc(-c2ncc(-n3ccnc3)cc2Cl)cc1`, in data set [1], the IC50 was 89 nM.

Broadly, the inhibition is the change of the read-out against control, counted positive when it falls. As for `Cc1cc(-n2ccnc2)ccc1-c1ccc(-c2nnn[nH]2)cc1Cl`, in data set [1], the IC50 turned out to be 12 nM. The inhibition at 20 min, 10 µM on CYP1A2 was determined as 47%; at CYP2D6 it was 63%; at CYP3A4, 43%; on CYP2C9 it was 83%. The inhibition at 40 min, 10 µM at CYP2C19 worked out at 76%.

On to `Cc1cc(-n2ccnc2)cnc1-c1ccc(C(=O)O)cc1`, for which the IC50 in [1] came out at 41 nM.

In the case of `Cc1cc(-n2ccnc2)cnc1-c1ccc(-c2nnn[nH]2)cc1`, in [1], the IC50 is 17 nM. The remaining at 1 h, 0.1 µM was 94% in data set [2], 50% in data set [3] and 17% in data set [4]. The inhibition at 20 min, 10 µM on CYP1A2 came out at 1%; at CYP2D6 it was 9%; on CYP3A4, 17%; at CYP2C9 it was 61%. Besides, the inhibition at 40 min, 10 µM on CYP2C19 was 69%.

Turning to `Cc1cc(C(=O)O)ccc1-c1ccc(-n2ccnc2)cc1`, the IC50 in [1] stood at 29 nM.

Take `CCc1cc(-n2ccnc2)cnc1-c1ccc(-c2nnn[nH]2)cc1F`: the IC50 in [1] is 62 nM.

Take `O=C(O)c1ccc(-c2ccc(-n3ccnc3)cc2)c(F)c1`: the IC50 in [1] is 29 nM.

Turning to `Clc1cc(-n2ccnc2)cnc1-c1ccc(-c2nnn[nH]2)cc1`, in data set [1], the IC50 came out at 20 nM. Moreover, the remaining at 1 h, 0.1 µM in [2] was 83%; in data set [3] it was 39%; in data set [4], 19%. For the same compound, the inhibition at 20 min, 10 µM was determined as 20% at CYP1A2, 11% on CYP2D6, 1% at CYP3A4 and 64% at CYP2C9. At CYP2C19, the inhibition at 40 min, 10 µM amounted to 42%.

As to `CCc1cc(-n2ccnc2)cnc1-c1ccc(-c2nnn[nH]2)cc1`, in data set [1], the IC50 is 66 nM.

As to `c1cc(-c2nn[nH]n2)ccc1-c1ccc(-c2nnn[nH]2)cc1`, in data set [1], the IC50 came to 3280 nM.

With `Cc1cc(-n2ccnc2)cnc1-c1ccc(C(=O)O)cc1F`, the IC50 in data set [1] is 36 nM.

Take `c1cn(-c2ccc(-c3ccc(-c4nn[nH]n4)cc3)cc2)cn1`: the IC50 in data set [1] was found to be 22 nM. The values for the remaining at 1 h, 0.1 µM in data set [2], in [3] and in data set [4] were 66%, 58% and 31%, respectively. The inhibition at 20 min, 10 µM at CYP1A2 stood at 74%; on CYP2D6, 73%; on CYP3A4, 54%; at CYP2C9 it was 77%. The inhibition at 40 min, 10 µM at CYP2C19 is 69%.

For `O=C(O)c1ccc(-c2ccc(-n3ccnc3)cc2)c(C(F)(F)F)c1`, the IC50 in data set [1] was 38 nM.

As for `O=C(O)c1ccc(-c2ccc(-n3ccnc3)cc2Cl)cc1`, the IC50 in data set [1] stood at 59 nM.

With `Cc1nccn1-c1ccc(-c2ccc(-c3nnn[nH]3)cc2Cl)cc1`, the IC50 in data set [1] was found to be 37 nM.

As for `Cc1cc(-n2ccnc2)ccc1-c1ccc(-c2nnn[nH]2)cc1`, the IC50 in data set [1] was found to be 14 nM. For the same compound, the remaining at 1 h, 0.1 µM in [2] was 99%; in data set [3] it was 68%; in data set [4], 44%. The inhibition at 20 min, 10 µM on CYP1A2 stood at 39%; at CYP2D6 it was 44%; at CYP3A4, 26%; at CYP2C9, 86%. Further, at CYP2C19, the inhibition at 40 min, 10 µM amounted to 84%.

With `NC(=O)c1ccc(-c2ccc(-n3ccnc3)cc2)cc1`, the inhibition in [5] is 60%.

On to `Cc1cc(-n2ccnc2)ccc1-c1ccc(C(=O)O)cc1`, for which the IC50 in [1] is 20 nM. Further, the remaining at 1 h, 0.1 µM in data set [2] was found to be 100%; in data set [3], 64%; in data set [4] it was 48%. For the same compound, the inhibition at 20 min, 10 µM turned out to be 22% at CYP1A2, 14% on CYP2D6, 4% on CYP3A4 and 37% on CYP2C9. Further, the inhibition at 40 min, 10 µM on CYP2C19 is 18%.

As for `CCc1cc(-n2ccnc2)ccc1-c1ccc(-c2nnn[nH]2)cc1`, the IC50 in data set [1] was determined as 6.1 nM. Also, the remaining at 1 h, 0.1 µM is 100% in data set [2], 71% in [3] and 58% in [4]. Further, the inhibition at 20 min, 10 µM on CYP1A2 turned out to be 56%; on CYP2D6, 37%; on CYP3A4, 33%; at CYP2C9 it was 94%. Also, the inhibition at 40 min, 10 µM at CYP2C19 came to 86%.

Regarding `Clc1cc(-c2nn[nH]n2)ccc1-c1ccc(-n2cnnn2)cc1`, in data set [5], the inhibition is 36%.

On to `Cc1nccn1-c1ccc(-c2ccc(-c3nnn[nH]3)cc2)cc1`, for which, in data set [1], the IC50 was found to be 97 nM. Further, the figures for the remaining at 1 h, 0.1 µM in data set [2], in data set [3] and in data set [4] were 63%, 82% and 92%, respectively. For the same compound, the inhibition at 20 min, 10 µM was 10% on CYP1A2, 37% on CYP2D6, -2% at CYP3A4 and 18% on CYP2C9. Moreover, the inhibition at 40 min, 10 µM at CYP2C19 was 33%.

With `O=C(O)c1ccc(-c2ccc(-n3ccnc3)cc2)c(Cl)c1`, the IC50 in [1] was 30 nM.

On to `N#Cc1ccc(-c2ccc(-n3ccnc3)cc2)cc1`, for which the inhibition in data set [5] came to 10%.

As for `Cc1cc(-c2nnn[nH]2)ccc1-c1ccc(-n2ccnc2)cn1`, in data set [1], the IC50 worked out at 44 nM.

Take `O=C(O)c1ccc(-c2ccc(-n3ccnc3)cc2)cc1`: the IC50 in data set [1] amounted to 62 nM.

For the compound `O=C(O)c1ccc(-c2ccc(O)cc2)cc1`, in data set [5], the inhibition amounted to 25%.

On to `FC(F)(F)c1cc(-c2nnn[nH]2)ccc1-c1ccc(-n2ccnc2)cc1`, for which, in data set [1], the IC50 turned out to be 39 nM.

On to `O=C(O)c1ccc(-c2ccc(-n3ccnc3)cn2)cc1`, for which the half-maximal inhibitory concentration (IC50) in data set [1] came to 214 nM.

As to `Cc1cc(-c2nnn[nH]2)ccc1-c1ccc(-n2ccnc2)cc1`, the concentration for half-maximal inhibition (IC50) in [1] is 26 nM.

With `CCc1cc(-n2ccnc2)ccc1-c1ccc(-c2nnn[nH]2)cc1F`, in data set [1], the IC50 amounted to 11 nM. Besides, the figures for the remaining at 1 h, 0.1 µM in data set [2], in [3] and in data set [4] were 97%, 80% and 78%, respectively. For the same compound, the inhibition at 20 min, 10 µM on CYP1A2 was 41%; at CYP2D6, 52%; at CYP3A4, 30%; at CYP2C9, 78%. The inhibition at 40 min, 10 µM on CYP2C19 is 88%.

For `Clc1cc(-n2ccnc2)ccc1-c1ccc(-c2nnn[nH]2)cc1`, in [1], the IC50 came to 22 nM.

As to `Cc1cc(-c2nnn[nH]2)ccc1-c1ncc(-n2ccnc2)cc1Cl`, in data set [1], the IC50 is 935 nM.

For the compound `c1cn(-c2cnc(-c3ccc(-c4nnn[nH]4)cc3)c(C3CCCCC3)c2)cn1`, the half-maximal inhibitory concentration (IC50) in data set [1] worked out at 74 nM.

Turning to `N#Cc1ccc(-c2ccc(-c3nn[nH]n3)cc2)cc1`, the inhibition in data set [5] came to 27%.

As to `Clc1cc(-c2nn[nH]n2)ccc1-c1ccc(-n2cnnc2)cc1`, the IC50 in data set [1] turned out to be 593 nM.

The record behind these values is ChEMBL document CHEMBL4257571, “Discovery of 5-(2-chloro-4'-(1H-imidazol-1-yl)-[1,1'-biphenyl]-4-yl)-1H-tetrazole as potent and orally efficacious S-nitrosoglutathione reductase (GSNOR) inhibitors for the potential treatment of COPD” (Bioorg Med Chem Lett, 2018).
